Results as given in patent US12540137B2, “N-1 branched alkyl ether substituted imidazo[4,5-c]quinoline compounds, compositions, and methods” (Solventum Intellectual Properties Company, priority 2018, dated 2026).

Assays:
human TLR7 = biological target: T1, human TLR7 (Homo sapiens, UniProt Q9NYK1); test: TLR activation, HEK-BLUE-hTLR7 SEAP reporter cells; type: cell-based; conditions: 16-20 hours, SEAP response at least 2× vehicle control, tested 0.01-30 micromolar
T1 construct: host or cells: HEK293 (HEK-BLUE-hTLR7)
T1 sequence (Q9NYK1 27-1049): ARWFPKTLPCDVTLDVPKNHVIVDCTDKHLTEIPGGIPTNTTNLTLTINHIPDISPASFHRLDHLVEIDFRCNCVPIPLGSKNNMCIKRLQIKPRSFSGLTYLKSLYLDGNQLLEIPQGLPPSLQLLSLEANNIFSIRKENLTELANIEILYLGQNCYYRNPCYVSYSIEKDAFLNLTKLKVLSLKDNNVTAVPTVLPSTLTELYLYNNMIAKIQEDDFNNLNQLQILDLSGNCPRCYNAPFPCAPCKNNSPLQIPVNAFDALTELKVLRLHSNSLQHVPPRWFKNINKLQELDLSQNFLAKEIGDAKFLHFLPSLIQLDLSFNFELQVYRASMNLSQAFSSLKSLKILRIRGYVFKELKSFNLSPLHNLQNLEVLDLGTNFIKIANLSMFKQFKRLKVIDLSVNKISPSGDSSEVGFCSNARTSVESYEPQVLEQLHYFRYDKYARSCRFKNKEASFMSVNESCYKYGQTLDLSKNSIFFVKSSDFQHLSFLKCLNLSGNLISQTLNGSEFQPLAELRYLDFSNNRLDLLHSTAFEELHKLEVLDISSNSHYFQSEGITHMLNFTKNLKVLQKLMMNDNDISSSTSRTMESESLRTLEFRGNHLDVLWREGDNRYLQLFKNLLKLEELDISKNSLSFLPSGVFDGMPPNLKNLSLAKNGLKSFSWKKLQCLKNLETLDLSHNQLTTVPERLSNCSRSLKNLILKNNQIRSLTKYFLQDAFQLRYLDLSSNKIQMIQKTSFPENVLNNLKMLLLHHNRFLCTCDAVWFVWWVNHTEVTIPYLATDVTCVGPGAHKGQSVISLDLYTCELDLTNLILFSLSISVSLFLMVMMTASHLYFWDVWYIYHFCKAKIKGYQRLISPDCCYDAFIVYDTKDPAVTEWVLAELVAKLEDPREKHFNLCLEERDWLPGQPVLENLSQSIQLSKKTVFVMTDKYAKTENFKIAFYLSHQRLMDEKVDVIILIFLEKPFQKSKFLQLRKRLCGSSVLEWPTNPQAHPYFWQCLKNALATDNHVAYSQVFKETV
Protocol: (§1) HEK-BLUE-hTLR7 or hTLR8 reporter cells were obtained from InvivoGen, San Diego, CA. According to the manufacturer's description, these reporter cells were prepared by co-transfection of HEK293 cells with an inducible secreted embryonic alkaline phosphatase (SEAP) reporter gene and either the human TLR7 or TLR8 gene. The SEAP reporter gene was placed under the control of an IFN−β minimal promoter fused to five NF-κB and AP-1-binding sites. In the presence of a TLR ligand, activation of NF-κB and AP-1 occurs, resulting in a corresponding increase in SEAP levels.
(§2) In the assay, the HEK cells were grown and maintained using standard cell culture techniques in a growth medium that contained Dulbecco's Modified Eagle Medium (ThermoFisher Scientific Incorporated, Waltham, MA) supplemented with 1% penicillin/streptomycin and 10% heat-inactivated Gibco fetal bovine serum (ThermoFisher Scientific). Each compound was solubilized in DMSO to create a 3 mM stock solution. The stock solution was then further diluted with the growth medium to prepare serial dilutions. Each test compound was tested at a concentration of 30, 10, 3.3, 1.1, 0.37, 0.12, 0.04, and 0.01 micromolar using a 96-well format with 5×10^4 cells and 200 microliters of growth medium per well.
(§3) For each compound, hTLR7, hTLR8, and their respective null control HEK cells were screened. DMSO serially diluted into the growth medium served as the vehicle control. Cell culture supernatants containing the SEAP reporter were collected after an incubation period of 16-20 hours in a cell culture incubator (37° C. and 5% CO2), and either analyzed immediately or stored at −80° C. SEAP levels were measured using the colorimetric enzyme assay (QUANTI-BLUE (InvivoGen) according to manufacturer's instructions.
(§4) Specifically, the minimum effective concentration of each compound (micromolar) was determined as the lowest concentration of the compound that produced a SEAP expression response at least 2× greater than that observed with the vehicle control wells.

human TLR8 = biological target: T2, human TLR8 (Homo sapiens, UniProt Q9NR97); test: TLR activation, HEK-BLUE-hTLR8 SEAP reporter cells; type: cell-based; conditions: 16-20 hours, SEAP response at least 2× vehicle control, tested 0.01-30 micromolar
T2 construct: host or cells: HEK293 (HEK-BLUE-hTLR8)
T2 sequence (Q9NR97 27-1041): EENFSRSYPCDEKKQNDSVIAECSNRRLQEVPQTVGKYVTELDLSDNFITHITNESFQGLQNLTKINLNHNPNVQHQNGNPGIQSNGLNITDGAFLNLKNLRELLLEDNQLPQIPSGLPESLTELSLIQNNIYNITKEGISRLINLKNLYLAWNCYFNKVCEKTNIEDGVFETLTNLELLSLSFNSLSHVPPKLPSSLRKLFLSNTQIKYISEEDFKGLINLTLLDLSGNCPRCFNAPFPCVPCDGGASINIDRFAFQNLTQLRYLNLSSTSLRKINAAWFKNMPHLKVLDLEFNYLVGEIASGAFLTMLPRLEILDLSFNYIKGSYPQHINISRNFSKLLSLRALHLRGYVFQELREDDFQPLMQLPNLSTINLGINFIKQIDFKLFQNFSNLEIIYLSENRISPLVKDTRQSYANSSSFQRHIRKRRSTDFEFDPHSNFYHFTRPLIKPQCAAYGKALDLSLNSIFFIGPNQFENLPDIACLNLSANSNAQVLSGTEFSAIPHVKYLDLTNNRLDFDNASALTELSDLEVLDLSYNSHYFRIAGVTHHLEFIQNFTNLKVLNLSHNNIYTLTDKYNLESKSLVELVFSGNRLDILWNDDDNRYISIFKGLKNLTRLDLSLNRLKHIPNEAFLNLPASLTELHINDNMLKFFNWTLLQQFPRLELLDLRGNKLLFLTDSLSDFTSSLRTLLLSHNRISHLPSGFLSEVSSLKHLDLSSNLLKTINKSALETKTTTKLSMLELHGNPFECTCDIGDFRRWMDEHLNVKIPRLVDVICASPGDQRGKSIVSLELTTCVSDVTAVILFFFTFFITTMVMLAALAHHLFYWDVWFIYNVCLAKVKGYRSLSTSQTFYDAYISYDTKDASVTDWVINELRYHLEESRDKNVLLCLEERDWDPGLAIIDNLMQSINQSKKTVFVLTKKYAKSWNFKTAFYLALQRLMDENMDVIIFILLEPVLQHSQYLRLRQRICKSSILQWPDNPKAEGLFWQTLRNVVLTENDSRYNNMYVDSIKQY
Protocol: as §1, §2, §3, §4

| MEC to Produce TLR Activation TLR 7 (human TLR7) | MEC to Produce TLR Activation TLR 8 (human TLR8) | SMILES |
| --- | --- | --- |
| 0.12 µM | 30 µM | CCOC[C@H](C(C)C)n1cnc2c(N)nc3ccccc3c21 [Example 1, 1-[(1S)-1-(ethoxymethyl)-2-methyl-propyl]imidazo[4,5-c]quinolin-4-amine] |
| 0.04 µM | 30 µM | CCOC[C@@H](n1cnc2c(N)nc3ccccc3c21)C(O)(CC)CC [Example 12, (2R)-2-(4-aminoimidazo[4,5-c]quinolin-1-yl)-1-ethoxy-3-ethyl-pentan-3-ol] |
| 0.04 µM | >30 µM | COC[C@@H](n1cnc2c(N)nc3ccccc3c21)C(C)(C)C [Example 11, 1-[(1S)-1-(methoxymethyl)-2,2-dimethyl-propyl]imidazo[4,5-c]quinolin-4-amine] |
| ≤0.01 µM | 3.3 µM | CCOC[C@@H](n1cnc2c(N)nc3ccccc3c21)C(C)(C)O [Example 5, (3R)-3-(4-aminoimidazo[4,5-c]quinolin-1-yl)-4-ethoxy-2-methyl-butan-2-ol] |
| 10 µM | 10 µM | CCOC[C@@H](n1c(CC)nc2c(N)nc3ccccc3c21)C(C)(C)O [Example 8, (3R)-3-(4-amino-2-ethyl-imidazo[4,5-c]quinolin-1-yl)-4-ethoxy-2-methyl-butan-2-ol] |

More lines, now with the values behind:

| SMILES | MEC to Produce TLR Activation TLR 7 (human TLR7) | MEC to Produce TLR Activation TLR 8 (human TLR8) |
| --- | --- | --- |
| CCOC[C@H](n1cnc2c(N)nc3ccccc3c21)C(C)(C)O [Example 6, (3S)-3-(4-aminoimidazo[4,5-c]quinolin-1-yl)-4-ethoxy-2-methyl-butan-2-ol] | >30 µM | >30 µM |
| CCOC[C@H](C(C)C)n1c(C)nc2c(N)nc3ccccc3c21 [Example 3, 1-[(1S)-1-(ethoxymethyl)-2-methyl-propyl]-2-methyl-imidazo[4,5-c]quinolin-4-amine] | 1.1 µM | 30 µM |
| CCOC[C@H](n1cnc2c(N)nc3ccccc3c21)C(C)(C)C [Example 10, 1-[(1R)-1-(ethoxymethyl)-2,2-dimethyl-propyl]imidazo[4,5-c]quinolin-4-amine] | 30 µM | >30 µM |
| CCOC[C@@H](C(C)C)n1c(C)nc2c(N)nc3ccccc3c21 [Example 4, 1-[(1R)-1-(ethoxymethyl)-2-methyl-propyl]-2-methyl-imidazo[4,5-c]quinolin-4-amine] | >30 µM | >30 µM |
| CCOC[C@@H](C(C)C)n1cnc2c(N)nc3ccccc3c21 [Example 2, 1-[(1R)-1-(ethoxymethyl)-2-methyl-propyl]imidazo[4,5-c]quinolin-4-amine] | 3.3 µM | >30 µM |
| CCOC[C@@H](n1c(C)nc2c(N)nc3ccccc3c21)C(C)(C)O [Example 7, (3R)-3-(4-amino-2-methyl-imidazo[4,5-c]quinolin-1-yl)-4-ethoxy-2-methyl-butan-2-ol] | 0.37 µM | 1.1 µM |
| CCO[C@@H](C)[C@@H](n1cnc2c(N)nc3ccccc3c21)C(C)(C)O [Example 13, (3R,4S)-3-(4-aminoimidazo[4,5-c]quinolin-1-yl)-4-ethoxy-2-methyl-pentan-2-ol] | 3.3 µM | 10 µM |
| CCOC[C@@H](n1cnc2c(N)nc3ccccc3c21)C(C)(C)C [Example 9, 1-[(1S)-1-(ethoxymethyl)-2,2-dimethyl-propyl]imidazo[4,5-c]quinolin-4-amine] | ≤0.01 µM | 30 µM |
